Read-outs that look alike come from different tables or passages of the source.
Key:
[1] = tested on: S6 Ribosomal Protein phosphorylation Ser235/236 in TSC1 null mouse embryo fibroblast (MEF) cells; assay: Reverse protein array, S6 Ribosomal Protein phosphorylation in TSC1 null MEF cells; type: cell-based; conditions: 1 h, TSC1-/- MEFs, 60 minutes
Procedure: TSC1−/− MEFs cells (provided by D. Kwiatkowski), were cultivated in Dulbecco's modified Eagle's medium (DMEM high Glucose, GIBCO, cat. No. 41956-039) supplemented with 10% heat inactivated fetal bovine calf serum (Amimed, cat. No. 2-01F16-I), 1% L-Glutamine (Invitrogen, cat. No. 25030-02), 1% penicillin-streptomycin (GIBCO, cat. No. 15140-114) at 37° C. in a 5% CO2 and 95% relative humidity atmosphere incubator.
The TSC1−/− cells were trypsinized and counted with a CASY TT cell counter (Schärfe System GmbH, Reutlingen Germany). The cells were diluted in fresh DMEM complete medium and 0.75×10^4 cells/150 μl/well seeded in 96-well TPP-tissue culture plates (TPP, cat. No. 92096). The plates were incubated at 37° C. and 5% CO2 under humidified condition for at least 20 h. Working solutions were prepared freshly as serial 8 step dilutions (vol/vol) in DMSO on the day of the experiment. The working solutions were further diluted 1/5000 in cell culture medium to get final compound concentrations of […]. The final DMSO concentration was kept constant at 0.02%. cell culture medium containing 0.02% DMSO was used as vehicle treatment control. Post incubation, the cells were treated with the serial compound dilution. 50 μl of the compound medium mixture was added to the wells containing cells and 150 μl DMEM medium and incubated for 60 minutes (37° C., 5% CO2). After 60 minutes of incubation, the medium mixture was quickly removed by aspiration. For cell lysis, a mixture of 10% CLB1 CeLyA lysis buffer (Zeptosens, cat. No. 9000), 90% CSBL1 CeLyA spotting buffer (Zeptosens, cat. No. 9020) was freshly prepared and supplemented with 1% Octyl β-D-glucopyranoside (SIGMA, cat. No. 08001-5G) and 1 mM Na-Orthovanadate (Sigma, cat No. S-6508). 50 μl of the described lysis buffer mix was added to each well, followed by 10 minutes of incubation on ice. After an additional freeze-thaw cycle, another 50 μl of the lysis buffer mix without Octyl β-D-glucopyranoside was added to the wells, and 90 μl of the cell lysate was transferred to a 96-well V-bottom plate (Fisher Scientific, cat. No. 6067Y), followed by a centrifugation step (5 min, 1500 rpm at 19° C. in an Eppendorf 5810R centrifuge) to remove the unlysed cell debris.
The spotting of the chips follows the previous described method.
The signal detection and the data analysis follows the previous described method using the pS6 ribosomal protein Ser235/236 (CST, cat. No. #2211) as a primary antibody.

[2] = tested on: PKB Ser473 phosphorylation in Rat1-myr-HA-p110 beta cells; assay: Reverse protein array, PKB Ser473 phosphorylation in Rat1-myr-HA-p110 beta cells; type: cell-based; conditions: Rattus norvegicus, 0.5 h, 30 minutes compound incubation, read-out: p-PKB/IC50_beta
Procedure: (§1) No. 15140-114) and 10 μg/ml Puromycine (Sigma, cat. No. P9620).
(§2) The Rat1-myr-HA-p110 alpha, beta and delta cells were trypsinized and counted with a CASY TT cell counter (Schärfe System GmbH, Reutlingen Germany). The cells were diluted in fresh DMEM complete medium and 3×10^4 cells/150 μl/well seeded in 96-well TPP-tissue culture plates (TPP, cat. No. 92096). The plates were incubated at 37° C. and 5% CO2 under humidified condition for at least 20 h. Compound of formula I working solutions were prepared freshly as serial 8 step dilutions (vol/vol) in DMSO on the day of the experiment. The working solutions were further diluted 1/500 in cell culture medium to get final compound concentrations of 10, 3.333, 1.111, 0.370, 0.123, 0.041, 0.014, 0.005 μM. The final DMSO concentration was kept constant at 0.2%. cell culture medium containing 0.2% DMSO was used as vehicle treatment control. Post incubation, the cells were treated with the serial compound dilution. 50 μl of the compound medium mixture was added to the wells containing cells and 150 μl DMEM medium and incubated for 30 minutes (37° C., 5% CO2). After 30 minutes of incubation, the medium mixture was quickly removed by aspiration. For cell lysis, a mixture of 10% CLB1 CeLyA lysis buffer (Zeptosens, cat. No. 9000), 90% CSBL1 CeLyA spotting buffer (Zeptosens, cat. No. 9020) was freshly prepared and supplemented with 1% Octyl β-D-glucopyranoside (SIGMA, cat. No. 08001-5G) and 1 mM Na-Orthovanadate (Sigma, cat No. S-6508). 50 μl of the described lysis buffer mix was added to each well, followed by 10 minutes of incubation on ice. After an additional freeze-thaw cycle, another 50 μl of the lysis buffer mix without Octyl β-D-glucopyranoside was added to the wells, and 90 μl of the cell lysate was transferred to a 96-well V-bottom plate (Fisher Scientific, cat. No. 6067Y), followed by a centrifugation step (5 min, 1500 rpm at 19° C. in an Eppendorf 5810R centrifuge) to remove the unlysed cell debris.
(§3) The samples were spotted onto ZeptoMARK® PWG protein microarray chips (Zeptosens, Witterswil, Switzerland) with the piezoelectric microdispense-based, non-contact Nano-Plotter 2.1 (GeSiM, Grosserkmannsdorf, Germany). Each sample was spotted at 4 different sample concentrations (d1=100%, d2=75%, d3=50%, d4=25%) by diluting the cell lysate with the corresponding volume of lysis buffer mix. After spotting the ZeptoMARK® protein microarrays, the chips are incubated for 1 hour at 37° C. To receive a uniform blocking result, the CeLyA blocking buffer BB1 (Zeptosens, cat. No. 9040) is administered via an ultrasonic nebulizer. After 20 minutes of blocking the chips are extensively rinsed with deionized water (Milli-Q quality, 18MΩ×cm) and dried in a nitrogen air flow.
(§4) After the sample spotting and blocking procedure, the ZeptoMARK® chips were transferred to the ZeptoCARRIER (Zeptosens, cat. No. 1100), whose six flow cells individually address the six arrays on a chip, and washed twice with 200 μl CAB1 CeLyA assay buffer (Zeptosens, cat. No. 9032). The assay buffer was then aspirated and each compartment incubated with 100 μl of the primary target antibody (pAkt Ser473; CST#9271) at RT over night. Post incubation, the primary antibody was removed, the arrays washed twice with CAB1 buffer and further incubated with 100 μl of Alexa fluor 647-labeled anti rabbit IgG Fab fragments (Invitrogen; #Z25305) for one hour at RT in the dark. After incubation, the arrays were washed twice with 200 μl CAB1 buffer. The fluorescence of the target-bound Fab fragments is read out on the ZeptoReader (Zeptosens, Witterswil, Switzerland) using a laser (excitation wavelength 635 nm) and a CCD camera. The fluorescence signal was assessed with exposure times of 1, 3, 5 and 10 seconds, depending on the intensity of the signal. The resulting four images taken per array are stored as 16-bit TIF files. […]

[3] = tested on: PKB Ser473 phosphorylation in Rat1-myr-HA-p110 delta cells; assay: Reverse protein array, PKB Ser473 phosphorylation in Rat1-myr-HA-p110 delta cells; type: cell-based; conditions: Rattus norvegicus, 0.5 h, 30 minutes compound incubation, read-out: p-PKB/IC50_delta
Procedure: as §1, §2, §3, §4

[4] = Parallel Artificial Membrane Permeability Assay (PAMPA) at pH 6.8; type: physicochemical
Source text: (§5) The physicochemical properties of relevance for the absorption of the compound, such as the solubility and the membrane permeability, especially at a pH close to neutral pH can be measured using the procedure as described by L. ZHOU et al. in JOURNAL OF PHARMACEUTICAL SCIENCES, VOL. 96, NO. 11, p. 3052-3071 (2007) for the solubility at pH 6.8 and the procedure as described by F. Wohnsland and B. Faller in Journal of Medicinal Chemistry Vol 44, p. 923-930 (2001) for the Parallel Artificial Membrane Permeability Assay (PAMPA) at pH 6.8.
The following permeability log Pe was measured for compound of formula (I) as exemplified below: […]

[5] = tested on: PKB Ser473 phosphorylation in Rat1-myr-HA-p110 alpha cells; assay: Reverse protein array, PKB Ser473 phosphorylation in Rat1-myr-HA-p110 alpha cells; type: cell-based; conditions: Rattus norvegicus, 0.5 h, 30 minutes compound incubation, read-out: p-PKB/IC50_alpha
Procedure: as §1, §2, §3, §4

[6] = High-throughput equilibrium solubility at pH 6.8; type: physicochemical; conditions: pH 6.8, aqueous buffer, thermodynamic from solid; read-out: HT-Eq Sol/pH 6.8
Source text: as §5

COCCOc1cncc(-c2ccc3ncc4c(c3c2)n(-c2ccc(OC)nc2OC)c(=O)n4C)c1 [Example 8.8, 1-(2,6-Dimethoxy-pyridin-3-yl)-8-[5-(2-methoxy-ethoxy)-pyridin-3-yl]-3-methyl-1,3-dihydro-imidazo[4,5-c]quinolin-2-one]
IC50 ([1]; read-out: p-S6 IC50): 7 nM | IC50 [2]: 115 nM | IC50 [3]: 143 nM | HT-Perm logPe pH6.8 [4]: −3.8 | IC50 [5]: 72.6 nM

CNc1ncc(-c2ccc3ncc4c(c3c2)n(-c2cncc(C)c2)c(=O)n4C)cn1 [Example 17.2, 3-Methyl-8-(2-methylamino-pyrimidin-5-yl)-1-(5-methyl-pyridin-3-yl)-1,3-dihydro-imidazo[4,5-c]quinolin-2-one]
IC50 ([1]; read-out: p-S6 IC50): 10 nM | IC50 [2]: 94.6 nM | IC50 [3]: 206 nM | IC50 [5]: 46.8 nM

CNc1ccc(-c2ccc3ncc4c(c3c2)n(-c2ccc(OC)nc2OC)c(=O)n4C)cn1 [Example 8.3, 1-(2,6-Dimethoxy-pyridin-3-yl)-3-methyl-8-(6-methylamino-pyridin-3-yl)-1,3-dihydro-imidazo[4,5-c]quinolin-2-one]
IC50 ([1]; read-out: p-S6): 1.05 nM | IC50 [2]: < 4.57 nM | IC50 [3]: 19.5 nM | HT-perm/logPe pH6.8 [4]: −3.8 | IC50 [5]: 4.57 nM

Cc1nc(N2CC[C@@H](O)C2)ccc1-n1c(=O)n(C)c2cnc3ccc(-c4cncc(C(C)(C)C#N)c4)cc3c21 [Example 34.5, 2-(5-{1-[6-((R)-3-Hydroxy-pyrrolidin-1-yl)-2-methyl-pyridin-3-yl]-3-methyl-2-oxo-2,3-dihydro-1H-imidazo[4,5-c]quinolin-8-yl}-pyridin-3-yl)-2-methyl-propionitrile]
IC50 ([1]; read-out: p-S6 IC50): 2 nM | IC50 [2]: 31 nM | IC50 [3]: 84.2 nM | IC50 [5]: 30.3 nM

CCOc1ccc(-c2ccc3ncc4c(c3c2)n(-c2ccc(OC)nc2C)c(=O)n4C)cn1 [Example 11.1, 8-(6-Ethoxy-pyridin-3-yl)-1-(6-methoxy-2-methyl-pyridin-3-yl)-3-methyl-1,3-dihydro-imidazo[4,5-c]quinolin-2-one]
IC50 ([1]; read-out: p-S6): 10.6 nM | IC50 [2]: 11.7 nM | IC50 [3]: 92.1 nM | HT-perm/logPe pH6.8 [4]: −3.8 | IC50 [5]: 5.01 nM

Cc1ncccc1-n1c(=O)n(C)c2cnc3ccc(-c4ccc5nccn5c4)cc3c21 [Example 2.23, 8-Imidazo[1,2-a]pyridin-6-yl-3-methyl-1-(2-methyl-pyridin-3-yl)-1,3-dihydro-imidazo[4,5-c]quinolin-2-one]
IC50 ([1]; read-out: p-S6 IC50): 37 nM | IC50 [2]: 273 nM | IC50 [3]: 1060 nM | HT-Perm logPe pH6.8 [4]: −5.3 | IC50 [5]: 64.1 nM

CCOc1ccc(-c2ccc3ncc4c(c3c2)n(-c2ccc(OC)nc2OC)c(=O)n4C)cn1 [Example 8.2, 1-(2,6-Dimethoxy-pyridin-3-yl)-8-(6-ethoxy-pyridin-3-yl)-3-methyl-1,3-dihydro-imidazo[4,5-c]quinolin-2-one]
IC50 ([1]; read-out: p-S6): 7.69 nM | IC50 [2]: 34.6 nM | IC50 [3]: 113 nM | HT-perm/logPe pH6.8 [4]: −4.3 | IC50 [5]: 7.36 nM

COc1ncc(-c2ccc3ncc4c(c3c2)n(-c2ccc(C(C)(C)O)nc2C)c(=O)n4C)c(OC)n1 [Example 31.3, 8-(2,4-Dimethoxy-pyrimidin-5-yl)-1-[6-(1-hydroxy-1-methyl-ethyl)-2-methyl-pyridin-3-yl]-3-methyl-1,3-dihydro-imidazo[4,5-c]quinolin-2-one]
IC50 ([1]; read-out: p-S6 IC50): 1 nM | IC50 [2]: 132 nM | IC50 [3]: 26.4 nM | HT-Perm logPe pH6.8 [4]: −4.1 | IC50 [5]: 5.3 nM

CCNc1cc(-c2ccc3ncc4c(c3c2)n(-c2ccc(N3CC[C@H](O)C3)nc2C)c(=O)n4C)cnc1CO [Example 32.6, 8-(5-Ethylamino-6-hydroxymethyl-pyridin-3-yl)-1-[6-((S)-3-hydroxy-pyrrolidin-1-yl)-2-methyl-pyridin-3-yl]-3-methyl-1,3-dihydro-imidazo[4,5-c]quinolin-2-one]
IC50 ([1]; read-out: p-S6 IC50): 8.6 nM | IC50 [2]: 39.7 nM | IC50 [3]: 83.2 nM | IC50 [5]: 24.3 nM

Cc1cccnc1-n1c(=O)n(C)c2cnc3ccc(-c4ccc(OCCCN(C)C)nc4)cc3c21 [Example 3.7, 8-[6-(3-Dimethylamino-propoxy)-pyridin-3-yl]-3-methyl-1-(3-methyl-pyridin-2-yl)-1,3-dihydro-imidazo[4,5-c]quinolin-2-one]
solubility thermodynamic [6]: > 469 µg/mL | IC50 [5]: 398 nM

Source: patent US20100311714A1, “1H-IMIDAZO[4,5-c]QUINOLINONE COMPOUNDS” (priority 2009, published 2010)
